Measured values published in ChEMBL document CHEMBL4715880, “Cancer Stem Cell (CSC) Inhibitors in Oncology-A Promise for a Better Therapeutic Outcome: State of the Art and Future Perspectives” (J Med Chem, 2020).
Blank lines part the entries; values can stand above or below the compound they belong to.

Key:
PC-3 [1] = assay: Anti-CSC activity against human PC-3 cells assessed as inhibition of sphere formation at 25 nM by sphere assay relative to control; type: functional
T47D = assay: Anti-CSC activity against human T47D cells incubated for 48 hrs by MTT assay; type: functional, cell-based
DU-145 [2] = assay: Anti-CSC activity against human DU145 cells incubated for 1 week with intermittent feeding of medium after day 3 by alamarblue staining based soft agar method; type: functional, cell-based
MDA-MB-231 [3] = assay: Anti-CSC activity against human MDA-MB-231 cells incubated for 48 hrs by MTT assay; type: functional, cell-based; settings: MDA-MB-231, 48 h
PC-3 [4] = assay: Anti-CSC activity against human PC-3 cells by soft agar assay; type: functional, cell-based
DU-145 [5] = assay: Anti-CSC activity against human DU-145 cells by MTT assay; type: functional, cell-based
PC-3 [6] = assay: Anti-CSC activity against human PC-3 cells by MTT assay; type: functional, cell-based
MDA-MB-231 [7] = assay: Anti-CSC activity against human MDA-MB-231 cells by soft agar assay; type: functional, cell-based
MDA-MB-231 [8] = assay: Anti-CSC activity against human MDA-MB-231 cells by MTT assay; type: functional, cell-based
[9] = Cytotoxicity against human PBMC by MTT assay; type: tissue-based
MDA-MB-231 [10] = assay: Anti-CSC activity against human MDA-MB-231 cells assessed as inhibition of sphere formation at 250 nM by phase-contrast microscopy; type: functional
PC-3 [11] = assay: Anti-CSC activity against human PC-3 cells incubated for 1 week by alamarblue staining based soft agar method; type: functional, cell-based; settings: PC-3, 168 h
MG-63 = assay: Cytotoxicity against human MG-63 cells incubated for 48 hrs by CCK-8 assay; type: functional, cell-based; settings: MG-63, 48 h
[12] = Selectivity ratio of IC50 for human hFOB1.19 cells to IC50 for human MG-63 cells
[13] = Selectivity ratio of IC50 for […] to IC50 for human MG-63 cells
HOS-TE85 = assay: Cytotoxicity against human MNNG/HOS cells incubated for 48 hrs by CCK-8 assay; type: functional, cell-based; settings: HOS-TE85, 48 h
PC-3 [14] = assay: Anti-CSC activity against human PC-3 cells assessed as inhibition of sphere formation at 2.5 uM by phase-contrast microscopy relative to control; type: functional
Homo sapiens = assay: Anti-CSC activity in patient with pSTAT3-positive tumors assessed as overall survival time at 480 mg, po administered bid with interval of 12 hrs; type: functional

SMILES: C=C(C)[C@H](CC=C(C)C)C[C@]12C[C@H](CC=C(C)C)C(C)(C)[C@](CC=C(C)C)(C(=O)C(C(=O)c3ccc(O)c(O)c3)=C1O)C2=O
IC50 (PC-3 [4]): 3460 nM | IC50 (DU-145 [5]): 2870 nM | IC50 (PC-3 [6]): 2860 nM | IC50 (MDA-MB-231 [7]): 2130 nM | IC50 (MDA-MB-231 [8]): 2430 nM

SMILES: Oc1ccc(/C=C/c2cc(O)cc(O)c2)cc1 [RESVERATROL]
IC50 (MG-63): 28600 nM | Ratio IC50 [12]: >40 | Ratio IC50 [13]: >40 | IC50 (HOS-TE85): 20600 nM

SMILES: O=C(Cn1cc(COc2cccc3ccccc23)nn1)Nc1ccc(Cl)cc1
IC50 (MDA-MB-231 [3]): 2160 nM | IC50 [9]: > 100000 nM | inhibition at 2.5 µM (PC-3 [14]): 50% | IC50 (PC-3 [11]): 2900 nM

SMILES: CC(=O)c1cc2c(o1)C(=O)c1ccccc1C2=O [NAPABUCASIN]
Time (Homo sapiens): 5.1 months

Second part, led by results:

IC50 (T47D): 330 nM | IC50 (DU-145 [2]): 270 nM
SMILES: N#Cc1c(NC(=O)CCl)sc2c1CCCC2
inhibition at 0.025 µM (PC-3 [1]): > 50%

IC50 (MDA-MB-231 [3]): 730 nM | IC50 (DU-145 [2]): 1160 nM
SMILES: O=C(CCl)Nc1ccc2c(c1)CCC2
inhibition at 0.025 µM (PC-3 [1]): > 50%

IC50 (MDA-MB-231 [3]): 1470 nM | IC50 (PC-3 [11]): 12100 nM
SMILES: O=C(Cn1cc(COc2ccc3ccccc3c2)nn1)Nc1ccc(Cl)cc1
IC50 [9]: > 100000 nM | inhibition at 0.25 µM (MDA-MB-231 [10]): > 50%
